Assay results from patent publication US9359308B2, “Pyrazine kinase inhibitors” (Portola Pharmaceuticals, Inc., priority 2011, dated 2016).

The compounds below were run against T1, full length active recombinant SYK enzyme (Homo sapiens, UniProt P43405) (assay: Inhibition of Syk tyrosine phosphorylation activity (LANCE TR-FRET kinase assay)). Conditions: activity in the Syk assays, class symbols.
T1 construct: full length active recombinant SYK enzyme (Millipore, Calif.); purchased Millipore
Assay type: biochemical
Source text: The in vitro and in vivo human Syk activities of the inventive compounds can be determined by various procedures known in the art, such as a test for their ability to inhibit the activity of human plasma Syk. […] The IC50 value is the concentration (in nM) of the compound required to provide 50% inhibition of human Syk proteolytic activity.
An in vitro assay for detecting and measuring inhibition activity against Syk is as follows:
Inhibition of Syk Tyrosine Phosphorylation Activity
Potency of candidate molecules for inhibiting Syk tyrosine phosphorylation activity is assessed by measuring the ability of a test compound to inhibit Syk-mediated tyrosine phosphorylation of a Syk-specific substrate.
SYK tyrosine phosphorylation activity is measured using the LANCE™ Technology developed by Perkin Elmer Life and Analytical Sciences (Boston, Mass.). LANCE™ refers to homogeneous time resolved fluorometry applications using techniques such as time-resolved fluorescence resonance energy transfer assay (TR-FRET) (see generally for procedures in Perkin Elmer Application Note-How to Optimize a Tyrosine Kinase Assay Using Time Resolved Fluorescence-Based LANCE Detection, wwww.perkinelmer.com/lifesciences). The assay principle involves detection of a phosphorylated substrate using energy transfer from a phosphospecific europium-labeled antibody to streptavidin-allophycocyanin as an acceptor.
To test the ability of candidate molecules to inhibit SYK tyrosine phosphorylation activity, molecules are reconstituted in 30% DMSO and serially diluted 1:3 with the final dilution containing DMSO in the absence of the candidate molecule. The final DMSO concentration in the assay is 3%. Kinase assays are performed as a two part reaction. The first reaction is a kinase reaction and which comprises of a candidate molecule, full length active recombinant SYK enzyme (Millipore, Calif.) and biotin-labeled SYK-specific substrate biotin-DEEDYESP-OH. The second reaction involves termination of the kinase reaction and the simultaneous addition of the detection reagents-europium-labeled anti-phosphotyrosine reagent (Eu-W1024-PY100, Perkin Elmer, Boston, Mass.) and Streptavidin-Allophycocyanin detection reagent (SA-APC, Prozyme, CA). The kinase reaction is performed in a black U-bottom 96-well microtitre plate. The final reaction volume is 50 μL and contains a final concentration of 1 nM active SYK enzyme, 550 nM SYK-substrate, and 100 μM ATP diluted in a buffer containing 50 mM Tris pH 7.5, 5 mM MgCl2, and 1 mM DTT. The reaction is allowed to proceed for 1 hour at room temperature. The quench buffer contains 100 mM Tris pH 7.5, 300 mM NaCl2, 20 mM EDTA, 0.02% Brij35, and 0.5% BSA. The detection reagents are added to the reaction mixture at the following dilutions-1:500 for Eu-W1024-PY100 and 1:250 for SA-APC. The kinase reaction is terminated by the addition of 50 μL quench buffer containing the detection reagents. The detection is allowed to proceed for 1 hr at room temperature. Detection of the phosphorlated substrate in the absence and presence of inhibitors is measured in the TR-FRET instrument, Analyst HT (Molecular Probes, Sunnyvale, Calif.) and the condition for measurements are set up using CriterionHost Release 2.0 (Molecular Probes, Sunnyvale, Calif.). The settings used are a follows: excitation 360 nm, emission 665-7.5 nm, beam splitter 350 nm 50/50, flash 100 pulses, delay 60 us, integration 400 us, z-height 2 mm. Inhibition of SYK-tyrosine kinase activity is calculated as the maximum response observed in the presence of inhibitor, compared to that in the absence of inhibitor. IC50s were derived by non-linear regression analysis.
`CC[C@@H](Nc1cnc(C(N)=O)c(Nc2ccc(-c3nnco3)cc2)n1)C(N)=O` [Example 27, (R)-3-(4-(1,3,4-oxadiazol-2-yl)phenylamino)-5-(1-amino-1-oxobutan-2-ylamino)pyrazine-2-carboxamide] was tested, and the IC50 was 10 to 100 nM.
In the case of `CC[C@@H](Nc1cnc(C(N)=O)c(Nc2ccc(-c3ccncc3)cc2)n1)C(N)=O` [Example 28, (R)-5-(1-amino-1-oxobutan-2-ylamino)-3-(4-(pyridin-4-yl)phenylamino)pyrazine-2-carboxamide], the IC50 is reported as 1 to 10 nM.
`CC[C@@H](Nc1cnc(C(N)=O)c(Nc2ccc(-c3cccnc3)cc2)n1)C(N)=O` [Example 29, (R)-5-(1-amino-1-oxobutan-2-ylamino)-3-(4-(pyridin-3-yl)phenylamino)pyrazine-2-carboxamide] was tested, and the IC50 was 1 to 10 nM.
In the case of `CC[C@@H](Nc1cnc(C(N)=O)c(Nc2ccc3c(c2)CCC(=O)N3)n1)C(N)=O` [Example 30, (R)-5-(1-amino-1-oxobutan-2-ylamino)-3-(2-oxo-1,2,3,4-tetrahydroquinolin-6-ylamino)pyrazine-2-carboxamide], the IC50 is reported as 1 to 10 nM.
For `NC(=O)c1ncc(N[C@H](Cc2ccccc2)C(N)=O)nc1Nc1ccc2ncccc2c1` [Example 31, (R)-5-(1-amino-1-oxo-3-phenylpropan-2-ylamino)-3-(quinolin-6-ylamino)pyrazine-2-carboxamide], the IC50 was 1 to 10 nM.
With `NC(=O)c1ncc(N[C@H](Cc2cccs2)C(N)=O)nc1Nc1ccc2ncccc2c1` [Example 32, (R)-5-(1-amino-1-oxo-3-(thiophen-2-yl)propan-2-ylamino)-3-(quinolin-6-ylamino)pyrazine-2-carboxamide] the IC50 was < 1 nM.
With `NC(=O)c1ncc(N[C@@H](C(N)=O)c2ccccc2)nc1Nc1ccc2ncccc2c1` [Example 33, (R)-5-(2-amino-2-oxo-1-phenylethylamino)-3-(quinolin-6-ylamino)pyrazine-2-carboxamide] the IC50 was 1 to 10 nM.
`NC(=O)c1ncc(NC2(C(N)=O)CCC2)nc1Nc1ccc2ncccc2c1` [Example 34, 5-(1-carbamoylcyclobutylamino)-3-(quinolin-6-ylamino)pyrazine-2-carboxamide] gave an IC50 of 1 to 10 nM.
`NC(=O)c1ncc(N[C@@H]2CCCC[C@@H]2N)nc1NC1CCOCC1` [Example 35, 5-((1R,2S)-2-aminocyclohexylamino)-3-(tetrahydro-2H-pyran-4-ylamino)pyrazine-2-carboxamide] was tested, and the IC50 was > 1000 nM.
With `NC(=O)c1ncc(N[C@@H]2CCCC[C@@H]2N)nc1NC1CCCC1` [Example 36, 5-((1R,2S)-2-aminocyclohexylamino)-3-(cyclopentylamino)pyrazine-2-carboxamide] the IC50 was > 1000 nM.
Work on `NC(=O)c1ncc(N[C@@H]2CCCC[C@@H]2N)nc1NC1Cc2ccccc2C1` [Example 37, 5-((1R,2S)-2-aminocyclohexylamino)-3-(2,3-dihydro-1H-inden-2-ylamino)pyrazine-2-carboxamide] yielded an IC50 of 10 to 100 nM.
Compound `NC(=O)c1ncc(N[C@@H]2CCCC[C@@H]2N)nc1N[C@@H]1CCc2ccccc21` [Example 38, 5-((1R,2S)-2-aminocyclohexylamino)-3-((R)-2,3-dihydro-1H-inden-1-ylamino)pyrazine-2-carboxamide] has an IC50 of 100 to 1000 nM.
`NC(=O)c1ncc(N[C@@H]2CCCC[C@@H]2N)nc1N[C@H]1CCc2ccccc21` [Example 39, 5-((1R,2S)-2-aminocyclohexylamino)-3-((S)-2,3-dihydro-1H-inden-1-ylamino)pyrazine-2-carboxamide] was tested, and the IC50 was 100 to 1000 nM.
With `NC(=O)c1ncc(N[C@@H]2CCCC[C@@H]2N)nc1Nc1cc(-n2cccn2)cc(-n2cccn2)c1` [Example 44, 5-((1R,2S)-2-aminocyclohexylamino)-3-(3,5-di(1H-pyrazol-1-yl)phenylamino)pyrazine-2-carboxamide] the IC50 was 1 to 10 nM.
Compound `NC(=O)c1ncc(N[C@@H]2CCCC[C@@H]2N)nc1Nc1cc(-c2ncccn2)cc(-n2cccn2)c1` [Example 45, 3-(3-(1H-pyrazol-1-yl)-5-(pyrimidin-2-yl)phenylamino)-5-((1R,2S)-2-aminocyclohexylamino)pyrazine-2-carboxamide] has an IC50 of 1 to 10 nM.
`NC(=O)c1ncc(N[C@@H]2CCNC2)nc1Nc1cnc2ccccc2c1` [Example 55, (R)-5-(pyrrolidin-3-ylamino)-3-(quinolin-3-ylamino)pyrazine-2-carboxamide] gave an IC50 of 1 to 10 nM.
With `NC(=O)c1ncc(N[C@@H]2CCNC2)nc1Nc1ccc2ncccc2c1` [Example 56, (R)-5-(pyrrolidin-3-ylamino)-3-(quinolin-6-ylamino)pyrazine-2-carboxamide] the IC50 was 1 to 10 nM.
`NC(=O)c1ncc(N[C@H]2CCCNC2)nc1Nc1cnc2ccccc2c1` [Example 57, (S)-5-(piperidin-3-ylamino)-3-(quinolin-3-ylamino)pyrazine-2-carboxamide] showed an IC50 of 100 to 1000 nM.
`NC(=O)c1ncc(N[C@H]2CCCNC2)nc1Nc1ccc2ncccc2c1` [Example 58, (S)-5-(piperidin-3-ylamino)-3-(quinolin-6-ylamino)pyrazine-2-carboxamide] gave an IC50 of 10 to 100 nM.
`CC(=O)N1CCN(c2ccc(Nc3nc(NC4CC4)cnc3C(N)=O)cc2)CC1` [Example 59, 3-(4-(4-acetylpiperazin-1-yl)phenylamino)-5-(cyclopropylamino)pyrazine-2-carboxamide] showed an IC50 of 100 to 1000 nM.
With `CC(=O)N1CCN(c2ccc(Nc3cnc(C(N)=O)c(NC4CC4)n3)cc2)CC1` [Example 60, 5-(4-(4-acetylpiperazin-1-yl)phenylamino)-3-(cyclopropylamino)pyrazine-2-carboxamide] the IC50 was > 1000 nM.
For `Cc1cccc(Nc2nc(N[C@@H]3CCCC[C@@H]3N)cnc2C(N)=O)c1` [Example 61, 5-((1R,2S)-2-aminocyclohexylamino)-3-(m-tolylamino)pyrazine-2-carboxamide], the IC50 was 100 to 1000 nM.
In the case of `NC(=O)c1ncc(N[C@@H]2CCCC[C@@H]2N)nc1Nc1ccc(-n2cccn2)cc1` [Example 62, 3-(4-(1H-pyrazol-1-yl)phenylamino)-5-((1R,2S)-2-aminocyclohexylamino)pyrazine-2-carboxamide], the IC50 is reported as 100 to 1000 nM.
`Cc1cccc(Nc2nc(N[C@H](CC(C)C)C(N)=O)cnc2C(N)=O)c1` [Example 63, (R)-5-(1-amino-4-methyl-1-oxopentan-2-ylamino)-3-(m-tolylamino)pyrazine-2-carboxamide] gave an IC50 of 10 to 100 nM.
Compound `CC(C)C[C@@H](Nc1cnc(C(N)=O)c(Nc2cccc(-n3nccn3)c2)n1)C(N)=O` [Example 64, (R)-3-(3-(2H-1,2,3-triazol-2-yl)phenylamino)-5-(1-amino-4-methyl-1-oxopentan-2-ylamino)pyrazine-2-carboxamide] has an IC50 of 10 to 100 nM.
For `CC(C)[C@@H](Nc1cnc(C(N)=O)c(Nc2cccc(-n3nccn3)c2)n1)C(N)=O` [Example 65, (R)-3-(3-(2H-1,2,3-triazol-2-yl)phenylamino)-5-(1-amino-3-methyl-1-oxobutan-2-ylamino)pyrazine-2-carboxamide], the IC50 was 10 to 100 nM.
Work on `CC(C)[C@@H](Nc1cnc(C(N)=O)c(Nc2cnc3ccccc3c2)n1)C(N)=O` [Example 66, (R)-5-(1-amino-3-methyl-1-oxobutan-2-ylamino)-3-(quinolin-3-ylamino)pyrazine-2-carboxamide] yielded an IC50 of 1 to 10 nM.
`CC(C)[C@@H](Nc1cnc(C(N)=O)c(Nc2ccc3ncccc3c2)n1)C(N)=O` [Example 67, (R)-5-(1-amino-3-methyl-1-oxobutan-2-ylamino)-3-(quinolin-6-ylamino)pyrazine-2-carboxamide] showed an IC50 of 1 to 10 nM.
Work on `NC(=O)c1ncc(N[C@@H](C(N)=O)C2CC2)nc1Nc1cnc2ccccc2c1` [Example 68, (R)-5-(2-amino-1-cyclopropyl-2-oxoethylamino)-3-(quinolin-3-ylamino)pyrazine-2-carboxamide] yielded an IC50 of 1 to 10 nM.
For `Cc1ccc(Nc2nc(N[C@H](CC(C)C)C(N)=O)cnc2C(N)=O)cc1` [Example 69, (R)-5-(1-amino-4-methyl-1-oxopentan-2-ylamino)-3-(p-tolylamino)pyrazine-2-carboxamide], the IC50 was 10 to 100 nM.
